Test results from paper PMC12396409, “Screening and hit evaluation of a microbial metabolite library against the pathogenic Plasmodium falciparum and Toxoplasma gondii parasites” (International Journal for Parasitology: Drugs and Drug …, 2025).
Where two headings read alike, the source gives them in different places.

What was measured:
[1] = system: P. falciparum 3D7 parasites; assay: P. falciparum growth inhibition assay, 1-cycle (72 h treatment), SYBR DNA staining (library screen at 2 μg/mL and dose-response); format: cell-based, Plasmodium falciparum; settings: for activity at 2 µg/mL: Plasmodium falciparum, 3D7
P. falciparum = settings: cited from earlier work
[2] = system: P. falciparum 3D7 parasites; assay: P. falciparum growth inhibition assay, 2-cycle (120 h treatment), delayed-death screen and dose-response; format: cell-based, Plasmodium falciparum; settings: for activity at 2 µg/mL: Plasmodium falciparum, 3D7
[3] = system: T. gondii RH strain (RH-Tub-eYFP) tachyzoites; assay: microbe, parasite or virus in culture; format: cell-based, Toxoplasma gondii; settings: 72 h; for percent parasite growth at 2 µg/mL: Toxoplasma gondii
[4] = 48–72 h, ref Wilson et al., 2013, read-out: IC50 at 48–72 h
[5] = P. falciparum, 72 h, screen at 2 μg/mL, replicate 1
[6] = P. falciparum, 72 h, screen at 2 μg/mL, replicate 2
[7] = P. falciparum, 120 h, screen at 2 μg/mL, replicate 1
[8] = P. falciparum, 120 h, screen at 2 μg/mL, replicate 2
[9] = T. gondii, screen at 2 μg/mL, replicate 1
[10] = T. gondii, screen at 2 μg/mL, replicate 2
[11] = library screen at 2 μg/mL, 72 h, % growth, replicate 1
[12] = library screen at 2 μg/mL, 72 h, % growth, replicate 2
[13] = library screen at 2 μg/mL, 120 h, % growth, replicate 1
[14] = library screen at 2 μg/mL, 120 h, % growth, replicate 2
[15] = library screen at 2 μg/mL, % growth, replicate 1
[16] = library screen at 2 μg/mL, % growth, replicate 2

Micrococcin P1
IC50 ([1]; 3D7, 72 h treatment, mean ± S.D., n ≥ 3, read-out: IC50 (μM), P. falciparum): 0.02 ± 0.004 µM | IC50 ([1]; 72 h treatment, read-out: IC50, P. falciparum): < 0.2 µM | IC50 (P. falciparum; within 48 h, ref Rogers et al., 1998, read-out: IC50 in P. falciparum within 48 h): 0.035 µM

CCC[C@@H]1C[C@@H](C(=O)N[C@@H]([C@H]2O[C@H](SC)[C@H](O)[C@@H](O)[C@H]2O)[C@H](C)Cl)N(C)C1 [clindamycin]
IC50 (P. falciparum; [4]): ≥ 5 µM | IC50 at more than 96 h (P. falciparum; ref Wilson et al., 2013): low nanomolar range

spiramycin
IC50 (P. falciparum; [4]): ≥ 5 µM | IC50 at more than 96 h (P. falciparum; ref Wilson et al., 2013): low nanomolar range

COc1cc(OC)c2c(OC)c3ccoc3nc2c1OC [Trimethoxydictamnine, 5,7,8-]
Pf_72h_%Growth_Rep1 [1, 5]: 85.08% | Pf_72h_%Growth_Rep2 [1, 6]: 101.79% | Pf_120h_%Growth_Rep1 [2, 7]: 91.88% | Pf_120h_%Growth_Rep2 [2, 8]: 81.51% | Tg_72h_%Growth_Rep1 [3, 9]: 134.56% | Tg_72h_%Growth_Rep2 [3, 10]: 84.32%

CCCC(=O)OC1C(C)OC(OC2C(C)OC(OC3C(CC=O)CC(C)C(O)C=CC=CCC(C)OC(=O)CC(O)C3OC)C(O)C2N(C)C)CC1(C)O (centres unmarked) [BIA-L1357]
Pf_72h_%Growth_Rep1 ([1]; P. falciparum 3D7, 72 h, library screen at 2 μg/mL, % growth, replicate 1): 53.81% | Pf_72h_%Growth_Rep2 ([1]; P. falciparum 3D7, 72 h, library screen at 2 μg/mL, % growth, replicate 2): 78.28% | Pf_120h_%Growth_Rep1 ([2]; P. falciparum 3D7, 120 h, library screen at 2 μg/mL, % growth, replicate 1): 3.21% | Pf_120h_%Growth_Rep2 ([2]; P. falciparum 3D7, 120 h, library screen at 2 μg/mL, % growth, replicate 2): 21.14% | Tg_72h_%Growth_Rep1 ([3]; T. gondii RH, library screen at 2 μg/mL, % growth, replicate 1): 30.88% | Tg_72h_%Growth_Rep2 ([3]; T. gondii RH, library screen at 2 μg/mL, % growth, replicate 2): 21.24%

C[C@@H]1C[C@@H]([C@H](O)CC2CC(=O)NC(=O)C2)C(=O)[C@@H](C)C1 [cycloheximide, reference compound]
activity in the screen against P. falciparum ([1]; 2 μg/mL, 72 h, active = ≥80 % growth inhibition): active | activity at 2 µg/mL ([1]; P. falciparum, 72 h, screen at 2 μg/mL, replicate 1, read-out: Pf_72h_%Growth_Rep1): 1.07% | activity at 2 µg/mL ([1]; P. falciparum, 72 h, screen at 2 μg/mL, replicate 2, read-out: Pf_72h_%Growth_Rep2): 4.34% | activity at 2 µg/mL ([2]; P. falciparum, 120 h, screen at 2 μg/mL, replicate 1, read-out: Pf_120h_%Growth_Rep1): 1.73% | activity at 2 µg/mL ([2]; P. falciparum, 120 h, screen at 2 μg/mL, replicate 2, read-out: Pf_120h_%Growth_Rep2): 0.69% | percent parasite growth at 2 µg/mL ([3]; T. gondii, screen at 2 μg/mL, replicate 1, read-out: Tg_72h_%Growth_Rep1): 7.84% | percent parasite growth at 2 µg/mL ([3]; T. gondii, screen at 2 μg/mL, replicate 2, read-out: Tg_72h_%Growth_Rep2): 1.95%

CO[C@H]1C[C@H](O[C@H]2[C@H](C)O[C@@H](O[C@@H]3/C(C)=C/C[C@@H]4C[C@@H](C[C@]5(C=C[C@H](C)[C@@H](C6CCCCC6)O5)O4)OC(=O)[C@@H]4C=C(C)[C@@H](O)[C@H]5OC/C(=C\C=C\[C@@H]3C)[C@]54O)C[C@@H]2OC)O[C@@H](C)[C@@H]1O [Doramectin]
Pf_72h_%Growth_Rep1 [1, 11]: 86.87% | Pf_72h_%Growth_Rep2 [1, 12]: 79.49% | Pf_120h_%Growth_Rep1 [2, 13]: 100.88% | Pf_120h_%Growth_Rep2 [2, 14]: 96.33% | Tg_72h_%Growth_Rep1 [3, 15]: 127.97% | Tg_72h_%Growth_Rep2 [3, 16]: 102.84%

CN(C)[C@H]1C(O)=C(C(N)=O)C(=O)[C@@]2(O)C(O)=C3C(=O)c4c(O)cccc4[C@@](C)(O)[C@H]3[C@H](O)[C@@H]12 [Epioxytetracycline]
Pf_72h_%Growth_Rep1 [1, 11]: 86.72% | Pf_72h_%Growth_Rep2 [1, 12]: 78.69% | Pf_120h_%Growth_Rep1 [2, 13]: 99.19% | Pf_120h_%Growth_Rep2 [2, 14]: 96.08% | Tg_72h_%Growth_Rep1 [3, 15]: 152.95% | Tg_72h_%Growth_Rep2 [3, 16]: 107.04%

CO[C@H]1/C=C\C=C(\C)C[C@H](C)[C@H](O)[C@H](C)/C=C(C)\C=C(\C)C(=O)O[C@@H]1[C@@H](C)[C@@H](O)[C@H](C)[C@@]1(O)C[C@@H](OC(=O)/C=C/C(=O)O)[C@H](C)[C@@H](C(C)C)O1 [TS 155-2]
Pf_72h_%Growth_Rep1 [1, 5]: 3.32% | Pf_72h_%Growth_Rep2 [1, 6]: -2.51% | Pf_120h_%Growth_Rep1 [2, 7]: 23.01% | Pf_120h_%Growth_Rep2 [2, 8]: 6.11% | Tg_72h_%Growth_Rep1 [3, 9]: 1.68% | Tg_72h_%Growth_Rep2 [3, 10]: -0.35%
